How the values were obtained:
[1] = molecular target: Tyrosine-protein kinase CSK (Homo sapiens) (UniProt P41240); assay: Inhibition of N-terminal GST-fused full length human CSK (1 to 450 residues) expressed in baculovirus-infected Sf21 cells using Srctide as substrate at 1 uM in presence of ATP by Mobility shift assay
[2] = molecular target: Ephrin type-A receptor 5 (Homo sapiens) (UniProt P54756); assay: Inhibition of N-terminal GST-fused human EPHA5 catalytic domain (662 to 948 residues) expressed in baculovirus-infected Sf21 cells using Blk/Lyntide as substrate at 1 uM in presence of ATP by Mobility shift assay
[3] = molecular target: Ephrin type-B receptor 1 (Homo sapiens) (UniProt P54762); assay: Inhibition of N-terminal GST-fused human EPHB1 cytoplasmic domain (578 to 984 residues) expressed in baculovirus-infected Sf21 cells using Blk/Lyntide as substrate at 1 uM in presence of ATP by Mobility shift assay
[4] = molecular target: Tyrosine-protein kinase FRK (Homo sapiens) (UniProt P42685); assay: Inhibition of N-terminal GST-fused human FRK catalytic domain (223 to 505 residues) expressed in baculovirus-infected Sf21 cells using Srctide as substrate at 1 uM in presence of ATP by Mobility shift assay
[5] = molecular target: Tyrosine-protein kinase TXK (Homo sapiens) (UniProt P42681); assay: Inhibition of N-terminal GST-tagged human TXK catalytic domain (260 to 527 residues) expressed in baculovirus-infected Sf21 cells using Srctide as substrate at 1 uM in presence of ATP by Mobility shift assay
[6] = molecular target: Non-receptor tyrosine-protein kinase TYK2 (Homo sapiens) (UniProt P29597); assay: Inhibition of N-terminal GST-tagged human TYK2 catalytic domain (871 to 1187 residues) expressed in baculovirus-infected Sf21 cells using Srctide as substrate at 1 uM in presence of ATP by Mobility shift assay
[7] = molecular target: Aurora kinase A (Homo sapiens) (UniProt O14965); assay: Inhibition of N-terminal GST-fused full length human AurA (1 to 403 residues) expressed in baculovirus-infected Sf21 cells using Kemptide as substrate at 1 uM in presence of ATP by Mobility shift assay
[8] = molecular target: cGMP-dependent protein kinase 2 (Homo sapiens) (UniProt Q13237); assay: Inhibition of N-terminal GST-fused full length human CGK2 (1 to 762 residues) expressed in baculovirus expression system using Kemptide as substrate at 1 uM in presence of ATP by Mobility shift assay
[9] = molecular target: Casein kinase II alpha/beta (Homo sapiens) (UniProt P67870+P68400); assay: Inhibition of N-terminal GST-fused full length human CK2alpha1 (1 to 391 residues)/His-tagged human CK2beta (1 to 215 residues) expressed in baculovirus expression system using CK2tide as substrate at 1 uM in presence of ATP by Mobility shift assay
[10] = molecular target: Homeodomain-interacting protein kinase 2 (Homo sapiens) (UniProt Q9H2X6); assay: Inhibition of N-terminal GST-fused full length human HIPK2 (1 to 1198 residues) expressed in baculovirus expression system using DYRKtide-F as substrate at 1 uM in presence of ATP by Mobility shift assay
[11] = molecular target: Ribosomal protein S6 kinase alpha-5 (Homo sapiens) (UniProt O75582); assay: Inhibition of N-terminal GST-fused full length human MSK1 (1 to 802 residues) expressed in baculovirus expression system using Crosstide as substrate at 1 uM in presence of ATP by Mobility shift assay
[12] = molecular target: SRSF protein kinase 3 (Homo sapiens) (UniProt Q9UPE1); assay: Inhibition of N-terminal GST-fused full length human MSSK1 (1 to 567 residues) expressed in baculovirus expression system using DYRKtide-F as substrate at 1 uM in presence of ATP by Mobility shift assay
[13] = molecular target: Serine/threonine-protein kinase Nek4 (Homo sapiens) (UniProt P51957); assay: Inhibition of N-terminal GST-tagged full length human NEK4 (1 to 841 residues) expressed in baculovirus expression system using GS peptide as substrate at 1 uM in presence of ATP by Mobility shift assay
[14] = molecular target: Serine/threonine-protein kinase PAK 5 (Homo sapiens) (UniProt Q9P286); assay: Inhibition of N-terminal GST-fused human PAK5 catalytic domain (425 to 719 residues) expressed in baculovirus expression system using DAPK1tide as substrate at 1 uM in presence of ATP by Mobility shift assay
[15] = molecular target: [Pyruvate dehydrogenase (acetyl-transferring)] kinase isozyme 4, mitochondrial (Homo sapiens) (UniProt Q16654); assay: Inhibition of N-terminal GST-fused full length human PDHK4 (1 to 411 residues) expressed in Escherichia coli expression system using PDHKtide as substrate at 1 uM in presence of ATP by Mobility shift assay
[16] = molecular target: Serine/threonine-protein kinase N1 (Homo sapiens) (UniProt Q16512); assay: Inhibition of N-terminal GST-fused full length human PKN1 (1 to 942 residues) expressed in baculovirus expression system using S6K peptide as substrate at 1 uM in presence of ATP by IMAP
[17] = molecular target: Rho-associated protein kinase 1 (Homo sapiens) (UniProt Q13464); assay: Inhibition of N-terminal GST-fused human ROCK1 catalytic domain (1 to 477 residues) expressed in baculovirus expression system using LIMKtide as substrate at 1 uM in presence of ATP by Mobility shift assay
[18] = molecular target: Serine/threonine-protein kinase TAO2 (Homo sapiens) (UniProt Q9UL54); assay: Inhibition of N-terminal GST-fused human TAOK2 catalytic domain (1 to 319 residues) expressed in baculovirus expression system using TAOKtide as substrate at 1 uM in presence of ATP by Mobility shift assay
[19] = molecular target: TRAF2 and NCK-interacting protein kinase (Homo sapiens) (UniProt Q9UKE5); assay: Inhibition of N-terminal GST-fused human TNIK catalytic domain (1 to 314 residues) expressed in baculovirus expression system using Moesin-derived peptide as substrate at 1 uM in presence of ATP by Mobility shift assay
[20] = molecular target: Testis-specific serine/threonine-protein kinase 1 (Homo sapiens) (UniProt Q9BXA7); assay: Inhibition of N-terminal GST-fused full length human TSSK1 (1 to 367 residues) expressed in baculovirus expression system using GS peptide as substrate at 1 uM in presence of ATP by Mobility shift assay
[21] = molecular target: Serine/threonine-protein kinase WNK3 (Homo sapiens) (UniProt Q9BYP7); assay: Inhibition of N-terminal GST-fused human WNK3 catalytic domain (1 to 434 residues) expressed in baculovirus expression system using SPAKtide as substrate at 1 uM in presence of ATP by Mobility shift assay
[22] = molecular target: PI3-kinase p110-alpha/p85-alpha (Homo sapiens) (UniProt P27986+P42336); assay: Inhibition of N-terminal DYKDDDDK tagged, biotinylated full length human PIK3CA (1 to 1068 residues)/human PIK3R1 (1 to 724 residues) expressed in baculovirus expression system using PI(4,5)P2 as substrate at 1 uM in presence of ATP by ADP-Glo assay

cGMP-dependent protein kinase 2 (Homo sapiens), sequence (Q13237 whole entry, the tested form may be a part): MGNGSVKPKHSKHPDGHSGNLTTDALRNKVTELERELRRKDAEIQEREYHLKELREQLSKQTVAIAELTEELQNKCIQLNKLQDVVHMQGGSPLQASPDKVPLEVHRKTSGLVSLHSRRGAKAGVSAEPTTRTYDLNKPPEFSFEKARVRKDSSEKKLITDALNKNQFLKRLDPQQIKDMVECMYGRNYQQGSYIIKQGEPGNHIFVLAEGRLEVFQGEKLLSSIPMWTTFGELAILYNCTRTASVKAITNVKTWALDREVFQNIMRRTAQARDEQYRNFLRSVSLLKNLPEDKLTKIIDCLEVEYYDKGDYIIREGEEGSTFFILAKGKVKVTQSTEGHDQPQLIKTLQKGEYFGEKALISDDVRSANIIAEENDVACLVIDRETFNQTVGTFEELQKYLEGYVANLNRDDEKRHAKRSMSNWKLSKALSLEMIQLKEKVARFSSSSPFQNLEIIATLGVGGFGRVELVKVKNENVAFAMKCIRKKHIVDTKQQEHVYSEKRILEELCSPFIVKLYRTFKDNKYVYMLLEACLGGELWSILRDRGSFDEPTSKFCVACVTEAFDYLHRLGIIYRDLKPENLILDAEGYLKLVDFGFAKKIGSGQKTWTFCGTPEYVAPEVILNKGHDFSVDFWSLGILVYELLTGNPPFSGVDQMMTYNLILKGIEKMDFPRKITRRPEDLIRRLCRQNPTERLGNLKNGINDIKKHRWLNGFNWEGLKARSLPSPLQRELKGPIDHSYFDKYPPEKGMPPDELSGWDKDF
Ribosomal protein S6 kinase alpha-5 (Homo sapiens), sequence (O75582 whole entry, looked up, the tested form may be a part): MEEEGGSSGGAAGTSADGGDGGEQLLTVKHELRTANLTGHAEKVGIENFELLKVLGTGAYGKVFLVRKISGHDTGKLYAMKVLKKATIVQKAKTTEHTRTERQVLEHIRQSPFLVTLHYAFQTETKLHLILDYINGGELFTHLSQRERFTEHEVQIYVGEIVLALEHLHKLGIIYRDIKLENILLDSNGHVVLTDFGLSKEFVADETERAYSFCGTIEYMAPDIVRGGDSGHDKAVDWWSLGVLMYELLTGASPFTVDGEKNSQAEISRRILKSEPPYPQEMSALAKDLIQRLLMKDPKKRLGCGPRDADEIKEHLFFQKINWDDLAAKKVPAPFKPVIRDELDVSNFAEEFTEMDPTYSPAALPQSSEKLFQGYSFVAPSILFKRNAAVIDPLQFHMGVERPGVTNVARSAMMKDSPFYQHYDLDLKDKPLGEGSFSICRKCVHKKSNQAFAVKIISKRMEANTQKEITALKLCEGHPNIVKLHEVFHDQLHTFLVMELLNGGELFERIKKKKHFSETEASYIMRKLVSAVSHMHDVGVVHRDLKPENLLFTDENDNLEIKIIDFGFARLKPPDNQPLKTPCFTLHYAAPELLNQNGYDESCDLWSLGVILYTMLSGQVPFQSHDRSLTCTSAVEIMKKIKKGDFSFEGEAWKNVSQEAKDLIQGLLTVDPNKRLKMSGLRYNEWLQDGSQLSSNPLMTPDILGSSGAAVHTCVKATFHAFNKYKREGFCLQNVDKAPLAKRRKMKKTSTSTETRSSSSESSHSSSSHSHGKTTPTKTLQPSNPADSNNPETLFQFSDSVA
Rho-associated protein kinase 1 (Homo sapiens), sequence (Q13464 2-1354 limits assumed): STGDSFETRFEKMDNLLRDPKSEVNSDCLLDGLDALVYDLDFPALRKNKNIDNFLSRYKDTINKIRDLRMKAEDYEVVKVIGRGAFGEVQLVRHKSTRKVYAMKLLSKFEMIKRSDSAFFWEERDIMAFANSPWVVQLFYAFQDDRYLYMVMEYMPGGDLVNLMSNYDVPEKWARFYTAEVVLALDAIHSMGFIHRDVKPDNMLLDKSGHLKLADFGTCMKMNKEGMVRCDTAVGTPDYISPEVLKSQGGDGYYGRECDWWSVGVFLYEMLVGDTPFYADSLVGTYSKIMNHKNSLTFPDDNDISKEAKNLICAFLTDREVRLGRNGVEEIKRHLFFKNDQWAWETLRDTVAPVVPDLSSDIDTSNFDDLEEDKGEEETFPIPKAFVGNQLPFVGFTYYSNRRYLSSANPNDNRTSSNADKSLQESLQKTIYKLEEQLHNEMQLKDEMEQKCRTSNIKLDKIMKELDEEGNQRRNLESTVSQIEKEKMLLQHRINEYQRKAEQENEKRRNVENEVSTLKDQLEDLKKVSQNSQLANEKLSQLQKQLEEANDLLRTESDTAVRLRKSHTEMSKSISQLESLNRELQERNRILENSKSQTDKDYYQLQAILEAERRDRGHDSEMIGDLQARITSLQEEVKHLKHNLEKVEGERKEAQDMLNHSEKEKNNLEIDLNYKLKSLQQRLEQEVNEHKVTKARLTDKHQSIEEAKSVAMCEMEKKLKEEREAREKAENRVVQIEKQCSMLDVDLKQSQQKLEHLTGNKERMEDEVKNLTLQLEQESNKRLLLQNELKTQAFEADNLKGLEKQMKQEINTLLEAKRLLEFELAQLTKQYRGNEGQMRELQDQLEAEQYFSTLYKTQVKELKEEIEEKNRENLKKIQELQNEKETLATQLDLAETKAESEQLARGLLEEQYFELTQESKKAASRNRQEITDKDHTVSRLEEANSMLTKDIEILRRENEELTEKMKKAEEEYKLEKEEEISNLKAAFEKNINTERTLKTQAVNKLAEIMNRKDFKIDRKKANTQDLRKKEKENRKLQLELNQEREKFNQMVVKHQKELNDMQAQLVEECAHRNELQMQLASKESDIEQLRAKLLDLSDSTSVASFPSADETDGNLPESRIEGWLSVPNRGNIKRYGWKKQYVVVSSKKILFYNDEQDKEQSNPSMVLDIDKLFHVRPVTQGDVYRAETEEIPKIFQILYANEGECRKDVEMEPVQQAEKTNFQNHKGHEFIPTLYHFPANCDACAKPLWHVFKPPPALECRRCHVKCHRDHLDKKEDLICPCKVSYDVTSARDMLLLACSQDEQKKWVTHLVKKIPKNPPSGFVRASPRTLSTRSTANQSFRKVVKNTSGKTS
Tyrosine-protein kinase CSK (Homo sapiens), sequence (P41240 2-450 limits assumed): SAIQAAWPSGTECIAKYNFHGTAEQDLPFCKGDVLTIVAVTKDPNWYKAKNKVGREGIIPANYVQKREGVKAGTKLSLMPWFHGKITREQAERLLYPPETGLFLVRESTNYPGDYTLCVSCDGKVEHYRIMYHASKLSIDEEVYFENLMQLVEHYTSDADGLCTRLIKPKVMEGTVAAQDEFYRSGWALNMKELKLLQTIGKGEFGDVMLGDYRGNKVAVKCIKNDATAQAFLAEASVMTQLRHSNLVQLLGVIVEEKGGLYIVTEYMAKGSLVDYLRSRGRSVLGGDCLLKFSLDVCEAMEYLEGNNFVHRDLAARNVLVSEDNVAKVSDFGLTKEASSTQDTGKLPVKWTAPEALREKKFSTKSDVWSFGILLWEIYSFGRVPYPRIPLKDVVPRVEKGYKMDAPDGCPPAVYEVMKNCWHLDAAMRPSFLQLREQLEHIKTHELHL
Serine/threonine-protein kinase TAO2 (Homo sapiens), sequence (Q9UL54 whole entry, the tested form may be a part): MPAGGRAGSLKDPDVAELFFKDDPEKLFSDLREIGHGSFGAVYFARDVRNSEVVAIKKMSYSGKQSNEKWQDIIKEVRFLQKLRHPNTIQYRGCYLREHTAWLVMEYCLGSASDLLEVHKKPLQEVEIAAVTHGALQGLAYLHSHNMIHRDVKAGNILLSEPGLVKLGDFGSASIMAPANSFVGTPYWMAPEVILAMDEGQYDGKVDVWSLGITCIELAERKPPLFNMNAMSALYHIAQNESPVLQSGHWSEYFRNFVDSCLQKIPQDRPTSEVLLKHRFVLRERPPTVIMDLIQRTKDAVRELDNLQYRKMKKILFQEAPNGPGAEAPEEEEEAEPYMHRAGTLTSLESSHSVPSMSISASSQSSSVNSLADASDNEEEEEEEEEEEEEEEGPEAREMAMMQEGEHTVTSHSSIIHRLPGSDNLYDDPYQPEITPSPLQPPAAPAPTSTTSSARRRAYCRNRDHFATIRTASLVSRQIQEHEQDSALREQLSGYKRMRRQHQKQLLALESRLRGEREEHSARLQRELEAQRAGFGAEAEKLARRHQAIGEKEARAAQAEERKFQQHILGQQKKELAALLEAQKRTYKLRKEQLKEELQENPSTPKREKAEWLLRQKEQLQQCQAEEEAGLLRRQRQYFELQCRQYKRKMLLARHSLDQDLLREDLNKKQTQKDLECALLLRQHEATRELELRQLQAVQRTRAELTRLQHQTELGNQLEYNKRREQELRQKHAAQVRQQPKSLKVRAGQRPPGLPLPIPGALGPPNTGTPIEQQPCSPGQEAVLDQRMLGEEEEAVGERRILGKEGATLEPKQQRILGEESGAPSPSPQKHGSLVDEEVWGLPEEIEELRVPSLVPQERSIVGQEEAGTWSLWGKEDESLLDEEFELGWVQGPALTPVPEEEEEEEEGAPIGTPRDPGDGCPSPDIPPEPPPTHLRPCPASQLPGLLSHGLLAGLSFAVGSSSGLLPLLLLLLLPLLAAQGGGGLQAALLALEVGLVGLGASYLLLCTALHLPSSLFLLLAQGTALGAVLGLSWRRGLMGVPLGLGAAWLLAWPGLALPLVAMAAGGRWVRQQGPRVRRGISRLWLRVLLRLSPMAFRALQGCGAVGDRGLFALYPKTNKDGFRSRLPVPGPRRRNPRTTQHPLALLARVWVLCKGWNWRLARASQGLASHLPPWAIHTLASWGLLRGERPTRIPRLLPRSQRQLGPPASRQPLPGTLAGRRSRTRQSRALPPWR
[Pyruvate dehydrogenase (acetyl-transferring)] kinase isozyme 4, mitochondrial (Homo sapiens), sequence (Q16654 whole entry, looked up, the tested form may be a part): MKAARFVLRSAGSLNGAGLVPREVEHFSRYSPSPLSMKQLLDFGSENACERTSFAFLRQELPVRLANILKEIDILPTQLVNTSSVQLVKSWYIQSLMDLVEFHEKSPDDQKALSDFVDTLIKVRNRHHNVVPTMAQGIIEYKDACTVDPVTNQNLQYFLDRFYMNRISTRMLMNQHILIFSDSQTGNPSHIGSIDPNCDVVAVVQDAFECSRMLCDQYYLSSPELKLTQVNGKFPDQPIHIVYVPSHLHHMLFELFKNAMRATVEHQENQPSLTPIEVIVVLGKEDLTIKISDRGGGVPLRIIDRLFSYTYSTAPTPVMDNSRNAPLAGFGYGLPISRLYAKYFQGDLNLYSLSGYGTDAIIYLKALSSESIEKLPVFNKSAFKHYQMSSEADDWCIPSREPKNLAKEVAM

Row | SMILES | inhibition [1] | inhibition [2] | inhibition [3] | inhibition [4] | inhibition [5] | inhibition [6] | inhibition [7] | inhibition [8] | inhibition [9] | inhibition [10] | inhibition [11] | inhibition [12] | inhibition [13] | inhibition [14] | inhibition [15] | inhibition [16] | inhibition [17] | inhibition [18] | inhibition [19] | inhibition [20] | also measured
1 | Cc1cc(C)c(CNC(=O)c2cc(Br)c3c(c2C)O[C@@](C)([C@H]2CC[C@H](N(C)C)CC2)O3)c(=O)[nH]1 | -0.5% | -6.3% | -2.7% | -3.6% | 1.3% | -2.4% | 0.6% | -2.3% | -5.8% | -1.4% | 1.4% | -6.3% | -2% | -4.3% | -4.1% | 6.7% | 3% | -2.8% | 1.1% | -2.6% | inhibition [21]: -9.2%; inhibition [22]: 9.8%
2 | Cc1cc(C)c(CNC(=O)c2cc(Cl)c3c(c2C)O[C@@](C)([C@H]2CC[C@H](N(C)C)CC2)O3)c(=O)[nH]1 [VALEMETOSTAT] | -5.9% | -3.4% | -3.4% | -4.5% | -7% | -8.8% | -0.5% | -4.3% | -4% | 3.1% | 0.4% | -5.4% | -2.9% | -3.9% | -4.3% | 8.3% | -2.5% | -0.5% | 0.3% | -4.9% | inhibition [21]: -3.9%; inhibition [22]: 0.6%
